Reference: PubChem BioAssay AID248 (DTP/NCI, 2004)
Values joined by “and” are separate entries in the source; they are usually repeats but may differ in a detail not shown here. Identical values can stand only once. Inconclusive results and toxic doses are left out. Rule as the data show it: active = T/C of 150% or more; inactive = T/C below 125%.

System: L1210 leukemia ip in BDF1 mice, survival T/C
Test: NCI In Vivo Anticancer Drug Screen. Data for tumor model L1210 Leukemia (intraperitoneal) in B6D2F1 (BDF1) mice
Details: higher = longer survival
In short: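 Mice bearing the transplanted tumor received compound or vehicle. Survival of the treated group was divided by that of the vehicle-treated control group to give the ratio.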

Measured: T/C

CN(N=O)C(N)=O
active: endpoint: mean survival time, dose: 2.5 mg/kg/injection, schedule: Q01DX Z (sc), vehicle: steriod suspending solution 156 % of control | endpoint: mean survival time, dose: 5.0 mg/kg/injection, schedule: Q01DX Z (sc), vehicle: steriod suspending solution 160 % of control | endpoint: mean survival time, dose: 8.0 mg/kg/injection, schedule: Q01DX Z (ip), vehicle: saline 162 % of control | endpoint: mean survival time, dose: 10.0 mg/kg/injection, schedule: Q01DX Z (sc), vehicle: steriod suspending solution 156 % of control | endpoint: mean survival time, dose: 12.0 mg/kg/injection, schedule: Q01DX Z (ip), vehicle: saline 184 % of control | endpoint: mean survival time, dose: 12.5 mg/kg/injection, schedule: Q01DX Z (oral), vehicle: steriod suspending solution 157 % of control | endpoint: mean survival time, dose: 13.0 mg/kg/injection, schedule: Q02DX010 (ip), vehicle: saline 154 % of control | endpoint: mean survival time, dose: 18.0 mg/kg/injection, schedule: Q01DX Z (ip), vehicle: carboxymethylcellulose (CMC) 177 % of control | endpoint: mean survival time, dose: 18.0 mg/kg/injection, schedule: Q01DX Z (ip), vehicle: saline 187 % of control | endpoint: mean survival time, dose: 18.0 mg/kg/injection, schedule: Q01DX Z (sc), vehicle: other 188 % of control | endpoint: mean survival time, dose: 20.0 mg/kg/injection, schedule: Q01DX009 (ip), vehicle: saline 158 % of control and 174 % of control | endpoint: mean survival time, dose: 20.0 mg/kg/injection, schedule: Q02DX010 (ip), vehicle: other 159 % of control | endpoint: mean survival time, dose: 20.0 mg/kg/injection, schedule: Q02DX010 (ip), vehicle: saline 160 % of control and 166 % of control | endpoint: mean survival time, dose: 22.5 mg/kg/injection, schedule: Q02DX010 (ip), vehicle: saline 152 % of control | endpoint: mean survival time, dose: 24.0 mg/kg/injection, schedule: Q02DX010 (ip), vehicle: saline 167 % of control | endpoint: mean survival time, dose: 30.0 mg/kg/injection, schedule: Q02DX010 (ip), vehicle: other 208 % of control | endpoint: mean survival time, dose: 30.0 mg/kg/injection, schedule: Q02DX010 (ip), vehicle: saline 154 % of control and 177 % of control | endpoint: mean survival time, dose: 36.0 mg/kg/injection, schedule: Q02DX010 (ip), vehicle: saline 211 % of control | endpoint: mean survival time, dose: 72.0 mg/kg/injection, schedule: Q01DX001 (ip), vehicle: saline 188 % of control | endpoint: median survival time, dose: 10.0 mg/kg/injection, schedule: Q01DX009 (ip), vehicle: saline 155 % of control | endpoint: median survival time, dose: 12.0 mg/kg/injection, schedule: Q01DX009 (ip), vehicle: saline 172 % of control | endpoint: median survival time, dose: 12.5 mg/kg/injection, schedule: Q01DX017 (ip), vehicle: saline 183 % of control and 194 % of control | endpoint: median survival time, dose: 20.0 mg/kg/injection, schedule: Q01DX009 (ip), vehicle: saline 233 % of control and 242 % of control | endpoint: median survival time, dose: 24.0 mg/kg/injection, schedule: Q01DX009 (ip), vehicle: saline 190 % of control
inactive: endpoint: mean survival time, dose: 0.35 mg/kg/injection, schedule: Q01DX Z (sc), vehicle: steriod suspending solution 103 % of control | endpoint: mean survival time, dose: 0.55 mg/kg/injection, schedule: Q01DX Z (sc), vehicle: steriod suspending solution 97 % of control | endpoint: mean survival time, dose: 0.83 mg/kg/injection, schedule: Q01DX Z (sc), vehicle: steriod suspending solution 100 % of control | endpoint: mean survival time, dose: 0.92 mg/kg/injection, schedule: Q01DX Z (oral), vehicle: steriod suspending solution 98 % of control | endpoint: mean survival time, dose: 1.25 mg/kg/injection, schedule: Q01DX Z (sc), vehicle: steriod suspending solution 103 % of control | endpoint: mean survival time, dose: 1.38 mg/kg/injection, schedule: Q01DX Z (oral), vehicle: steriod suspending solution 106 % of control | endpoint: mean survival time, dose: 2.08 mg/kg/injection, schedule: Q01DX Z (oral), vehicle: steriod suspending solution 107 % of control | endpoint: mean survival time, dose: 2.25 mg/kg/injection, schedule: Q01DX Z (ip), vehicle: carboxymethylcellulose (CMC) 112 % of control | endpoint: mean survival time, dose: 3.12 mg/kg/injection, schedule: Q01DX Z (oral), vehicle: steriod suspending solution 114 % of control | endpoint: mean survival time, dose: 3.6 mg/kg/injection, schedule: Q01DX Z (ip), vehicle: carboxymethylcellulose (CMC) 109 % of control | endpoint: mean survival time, dose: 4.5 mg/kg/injection, schedule: Q01DX Z (ip), vehicle: carboxymethylcellulose (CMC) 109 % of control and 120 % of control | endpoint: mean survival time, dose: 5.0 mg/kg/injection, schedule: Q01DX009 (ip), vehicle: saline 118 % of control and 123 % of control | endpoint: mean survival time, dose: 5.7 mg/kg/injection, schedule: Q02DX010 (ip), vehicle: carboxymethylcellulose (CMC) 121 % of control | endpoint: mean survival time, dose: 6.0 mg/kg/injection, schedule: Q01DX Z (ip), vehicle: carboxymethylcellulose (CMC) 119 % of control | endpoint: mean survival time, dose: 6.2 mg/kg/injection, schedule: Q01DX Z (sc), vehicle: saline 106 % of control and 113 % of control | endpoint: mean survival time, dose: 6.25 mg/kg/injection, schedule: Q01DX Z (oral), vehicle: steriod suspending solution 101 % of control | endpoint: mean survival time, dose: 6.8 mg/kg/injection, schedule: Q02DX010 (ip), vehicle: saline 122 % of control | endpoint: mean survival time, dose: 8.0 mg/kg/injection, schedule: Q01DX Z (sc), vehicle: other 122 % of control | endpoint: mean survival time, dose: 8.0 mg/kg/injection, schedule: Q01DX Z (sc), vehicle: saline 115 % of control | endpoint: mean survival time, dose: 9.0 mg/kg/injection, schedule: Q01DX Z (sc), vehicle: saline 103 % of control | endpoint: mean survival time, dose: 9.0 mg/kg/injection, schedule: Q02DX010 (ip), vehicle: carboxymethylcellulose (CMC) 122 % of control | endpoint: mean survival time, dose: 18.0 mg/kg/injection, schedule: Q01DX001 (ip), vehicle: saline 124 % of control | endpoint: mean survival time, dose: 24.8 mg/kg/injection, schedule: Q01DX Z (oral), vehicle: saline 112 % of control | endpoint: mean survival time, dose: 27.0 mg/kg/injection, schedule: Q01DX Z (ip), vehicle: saline 115 % of control | endpoint: mean survival time, dose: 36.0 mg/kg/injection, schedule: Q01DX Z (ip), vehicle: carboxymethylcellulose (CMC) 122 % of control | endpoint: mean survival time, dose: 40.0 mg/kg/injection, schedule: Q01DX009 (ip), vehicle: saline 118 % of control and 88 % of control | endpoint: mean survival time, dose: 40.0 mg/kg/injection, schedule: Q01DX Z (ip), vehicle: saline 103 % of control | endpoint: mean survival time, dose: 45.0 mg/kg/injection, schedule: Q01DX Z (ip), vehicle: carboxymethylcellulose (CMC) 94 % of control | endpoint: mean survival time, dose: 45.0 mg/kg/injection, schedule: Q02DX010 (ip), vehicle: saline 108 % of control | endpoint: mean survival time, dose: 56.0 mg/kg/injection, schedule: Q01DX Z (oral), vehicle: saline 113 % of control and 114 % of control | endpoint: mean survival time, dose: 67.0 mg/kg/injection, schedule: Q02DX010 (ip), vehicle: other 101 % of control | endpoint: mean survival time, dose: 67.0 mg/kg/injection, schedule: Q02DX010 (ip), vehicle: saline 74 % of control | endpoint: mean survival time, dose: 80.0 mg/kg/injection, schedule: Q01DX Z (sc), vehicle: steriod suspending solution 101 % of control | endpoint: mean survival time, dose: 84.0 mg/kg/injection, schedule: Q01DX Z (oral), vehicle: saline 101 % of control | endpoint: mean survival time, dose: 160.0 mg/kg/injection, schedule: Q01DX Z (sc), vehicle: steriod suspending solution 88 % of control | endpoint: median survival time, dose: 0.75 mg/kg/injection, schedule: Q01DX009 (ip), vehicle: saline 95 % of control | endpoint: median survival time, dose: 1.5 mg/kg/injection, schedule: Q01DX009 (ip), vehicle: saline 100 % of control and 110 % of control | endpoint: median survival time, dose: 3.0 mg/kg/injection, schedule: Q01DX009 (ip), vehicle: saline 100 % of control and 115 % of control | endpoint: median survival time, dose: 5.0 mg/kg/injection, schedule: Q01DX009 (ip), vehicle: saline 121 % of control | endpoint: median survival time, dose: 6.3 mg/kg/injection, schedule: Q01DX017 (ip), vehicle: saline 122 % of control | endpoint: median survival time, dose: 40.0 mg/kg/injection, schedule: Q01DX009 (ip), vehicle: saline 100 % of control and 121 % of control

O=C(NC(CSCc1ccccc1)C(=O)Oc1ccc([N+](=O)[O-])cc1)OCc1ccccc1 (centres undefined)
inactive: endpoint: mean survival time, dose: 12.0 mg/kg/injection, schedule: Q01DX009 (ip), vehicle: gum acacia 91 % of control | endpoint: mean survival time, dose: 25.0 mg/kg/injection, schedule: Q01DX009 (ip), vehicle: gum acacia 111 % of control | endpoint: mean survival time, dose: 25.0 mg/kg/injection, schedule: Q04DX003 (ip), vehicle: gum acacia 91 % of control | endpoint: mean survival time, dose: 50.0 mg/kg/injection, schedule: Q01DX009 (ip), vehicle: gum acacia 87 % of control | endpoint: mean survival time, dose: 50.0 mg/kg/injection, schedule: Q04DX003 (ip), vehicle: gum acacia 88 % of control | endpoint: mean survival time, dose: 100.0 mg/kg/injection, schedule: Q04DX003 (ip), vehicle: gum acacia 92 % of control

CC(=O)OC(OC(C)=O)c1cccc2ccccc12
inactive: endpoint: mean survival time, dose: 222.0 mg/kg/injection, schedule: Q01DX Z (ip), vehicle: saline 91 % of control | endpoint: mean survival time, dose: 333.0 mg/kg/injection, schedule: Q01DX Z (ip), vehicle: saline 98 % of control | endpoint: mean survival time, dose: 500.0 mg/kg/injection, schedule: Q01DX Z (ip), vehicle: saline 109 % of control

NC(CSS(=O)(=O)O)=NCc1cccnc1
inactive: endpoint: mean survival time, dose: 100.0 mg/kg/injection, schedule: Q04DX002 (ip), vehicle: Klucel (hydroxypropylcellulose) (HPC) 89 % of control | endpoint: mean survival time, dose: 200.0 mg/kg/injection, schedule: Q04DX002 (ip), vehicle: Klucel (hydroxypropylcellulose) (HPC) 105 % of control

Cc1[nH]c2c(O)ccc(O)c2c1C
inactive: endpoint: mean survival time, dose: 100.0 mg/kg/injection, schedule: Q01DX001 (ip), vehicle: saline 106 % of control | endpoint: mean survival time, dose: 200.0 mg/kg/injection, schedule: Q01DX001 (ip), vehicle: saline 97 % of control | endpoint: mean survival time, dose: 400.0 mg/kg/injection, schedule: Q01DX001 (ip), vehicle: saline 106 % of control
